1 molecule from patent publication US20070104799A1, “Treatment of chronic kidney disease (CKD) subjects using lanthanum compounds” (SHIRE INT[…] B.V., priority 2005, published 2007) can be followed below.

The subject of the test is Crl:CD (SD) Br (VAFplus) female rats with spontaneous renal pathology, including mineralization. The following applies: 104 weeks; for rats with evidence of pelvic/papillary mineralization / rats with evidence of transitional cell hyperplasia in kidneys: n=60; for rats with evidence of pelvic/papillary mineralization: undosed rats approx. 50% (n=120); for rats with evidence of transitional cell hyperplasia in kidneys: undosed rats approx. 63% (n=120). How it is done:
Crl:CD (SD) Br (VAFplus) female rats (available from Charles River Laboratories in Wilmington, Mass.) were orally dosed once daily with 0, 100, 500, or 1500 mg (salt)/kg of lanthanum carbonate for 104 weeks. Crl:CD (SD) Br (VAFplus) female rats develop spontaneous renal pathology, including mineralization, as they age. At week 105, the pathological examination of the kidneys of these rats was performed.
Transitional cell hyperplasia is a response to trauma caused by the unnatural presence of mineral in the tissue, thus mineralization and hyperplasia are closely linked.

Structures are written as SMILES. Where two headings read alike, the source gives them in different places.

In the case of `O=C([O-])[O-].O=C([O-])[O-].O=C([O-])[O-].[La+3].[La+3]` [lanthanum carbonate], the “rats with evidence of pelvic/papillary mineralization” value (100 mg (salt)/kg/day oral) is about 35%, the “rats with evidence of pelvic/papillary mineralization” value (500 mg (salt)/kg/day oral) is recorded as about 5% and the “rats with evidence of pelvic/papillary mineralization” value (1500 mg (salt)/kg/day oral) is about 1.7%. Besides, the “rats with evidence of transitional cell hyperplasia in kidneys” value runs as follows: (100 mg (salt)/kg/day oral) about 48%; (500 mg (salt)/kg/day oral) about 23%; (1500 mg (salt)/kg/day oral) about 7%. Moreover, where the note is “oral administration, 100-1500 mg (salt)/kg/day”, the “effect on renal calcification (study conclusion)” value is recorded as “reduces renal calcification”.
